Experimental data published in ChEMBL document CHEMBL1128018, “Structure-activity relationships of the non-peptidyl growth hormone secretagogue L-692,429” (1994).
pEC50: −log10 of the molar value.

Organism: Rattus norvegicus
Assay: Growth hormone release from rat pituitary cells
Type: functional
Conditions: Pituitary gland cell, read-out: ED50 (the source's name)

| Structure (SMILES) | pEC50 |
| --- | --- |
| CC(=O)O[C@@H](C)CNC(C)(C)CC(=O)N[C@@H]1CCc2ccccc2N(Cc2ccc(-c3ccccc3-c3nn[nH]n3)cc2)C1=O | 6.70 |
| CC(C)(CC(=O)N[C@@H]1CCc2ccccc2N(Cc2ccc(-c3ccccc3-c3nn[nH]n3)cc2)C1=O)NC[C@H](O)CO | 8.00 |
| C[C@@H](F)CNC(C)(C)CC(=O)N[C@@H]1CCc2ccccc2N(Cc2ccc(-c3ccccc3-c3nn[nH]n3)cc2)C1=O | 7.05 |
| CC(C)(N)CC(=O)N[C@@H]1CCc2ccccc2N(Cc2ccc(-c3ccccc3-c3nn[nH]n3)cc2)C1=O | 7.22 |
| CCOC(=O)CNC(C)(C)CC(=O)N[C@@H]1CCc2ccccc2N(Cc2ccc(-c3ccccc3-c3nn[nH]n3)cc2)C1=O | 7.25 |
| CC(C)[C@H](O)CNC(C)(C)CC(=O)N[C@@H]1CCc2ccccc2N(Cc2ccc(-c3ccccc3-c3nn[nH]n3)cc2)C1=O | 6.00 |
| CC(C)(CC(=O)N[C@@H]1CCc2ccccc2N(Cc2ccc(-c3ccccc3-c3nn[nH]n3)cc2)C1=O)NC[C@H](O)c1ccccc1 | 6.00 |
| C[C@@H](O)CCNC(C)(C)C(=O)N[C@@H]1CCc2ccccc2N(Cc2ccc(-c3ccccc3-c3nn[nH]n3)cc2)C1=O | 7.00 |
| CC(C)(CC(=O)N[C@@H]1CCc2ccccc2N(Cc2ccc(-c3ccccc3-c3nn[nH]n3)cc2)C1=O)NCCO | 7.52 |
| C[C@@H](O)CNC(C)(C)CC(=O)N[C@@H]1CCc2ccccc2N(Cc2ccc(-c3ccccc3-c3nn[nH]n3)cc2)C1=O [L-692585] | 8.52 |
| C[C@H](O)CNC(C)(C)C(=O)N[C@@H]1CCc2ccccc2N(Cc2ccc(-c3ccccc3-c3nn[nH]n3)cc2)C1=O | 6.15 |
| C[C@@H](O)CCNC(C)(C)CC(=O)N[C@@H]1CCc2ccccc2N(Cc2ccc(-c3ccccc3-c3nn[nH]n3)cc2)C1=O | 8.00 |
| CO[C@H](C)CNC(C)(C)CC(=O)N[C@@H]1CCc2ccccc2N(Cc2ccc(-c3ccccc3-c3nn[nH]n3)cc2)C1=O | 7.70 |
| CC(C)[C@@H](O)CNC(C)(C)CC(=O)N[C@@H]1CCc2ccccc2N(Cc2ccc(-c3ccccc3-c3nn[nH]n3)cc2)C1=O | 6.70 |
| C[C@H](O)CCNC(C)(C)C(=O)N[C@@H]1CCc2ccccc2N(Cc2ccc(-c3ccccc3-c3nn[nH]n3)cc2)C1=O | 7.30 |
| C[C@@H](O)CNC(C)(C)C(=O)N[C@@H]1CCc2ccccc2N(Cc2ccc(-c3ccccc3-c3nn[nH]n3)cc2)C1=O | 6.52 |
| CC(C)(N)C(=O)N[C@@H]1CCc2ccccc2N(Cc2ccc(-c3ccccc3-c3nn[nH]n3)cc2)C1=O | 7.52 |
| CC(C)(CC(=O)N[C@@H]1CCc2ccccc2N(Cc2ccc(-c3ccccc3-c3nn[nH]n3)cc2)C1=O)NC[C@H](O)[C@@H](O)CO | 7.40 |
| CCCNC(C)(C)CC(=O)N[C@@H]1CCc2ccccc2N(Cc2ccc(-c3ccccc3-c3nn[nH]n3)cc2)C1=O | 7.30 |
| CC(C)(O)CNC(C)(C)CC(=O)N[C@@H]1CCc2ccccc2N(Cc2ccc(-c3ccccc3-c3nn[nH]n3)cc2)C1=O | 8.00 |
| C[C@H](O)CNC(C)(C)CC(=O)N[C@@H]1CCc2ccccc2N(Cc2ccc(-c3ccccc3-c3nn[nH]n3)cc2)C1=O | 8.15 |

Organism: Rattus norvegicus
Assay: Growth hormone release was determined in rat pituitary cells at 1 uM; A - weakly active
Type: functional, cell-based
Conditions: Pituitary gland cell

| Structure (SMILES) | Growth hormone release activity call at 1 uM |
| --- | --- |
| C[C@H](CNC(C)(C)CC(=O)N[C@@H]1CCc2ccccc2N(Cc2ccc(-c3ccccc3-c3nn[nH]n3)cc2)C1=O)OCc1ccccc1 | Weak activity |
| C[C@H](O)CCNC(C)(C)CC(=O)N[C@@H]1CCc2ccccc2N(Cc2ccc(-c3ccccc3-c3nn[nH]n3)cc2)C1=O | Weak activity |
| CC(C)(CC(=O)N[C@@H]1CCc2ccccc2N(Cc2ccc(-c3ccccc3-c3nn[nH]n3)cc2)C1=O)NCC(=O)O | Weak activity |
| CC(C)(CC(=O)N[C@@H]1CCc2ccccc2N(Cc2ccc(-c3ccccc3-c3nn[nH]n3)cc2)C1=O)NCCOCc1ccccc1 | Weak activity |
